Patent US11104700B2, “Oligonucleotides” (OXFORD UNIVERSITY INNOVATION LIMITED, priority 2017, dated 2021)
Like-named read-outs stand apart in the source and are kept apart here. In the oligonucleotide strings, read from the 5' end, every base follows the letter of its sugar. An asterisk marks phosphorothioate; unmarked linkages are phosphodiester. Other units and linkages are bracketed, terminal groups are in braces. A string of capitals states the bases alone. [tz] = triazole internucleoside linkage replacing phosphodiester; l = locked nucleic acid (LNA); [5mC] = 5-methylcytosine; d = 2'-deoxy (DNA)

Legend:
[1] = test system: DNA target 5′-dGCT GCA GGC GTC G (SEQ ID NO: 23); type: binding; conditions: for Tm, DNA target: pH 7
[2] = test system: RNA target 5′-rGCU GCA GGC GUC G (SEQ ID NO: 24); type: binding; conditions: for Tm, RNA target: pH 7
[3] = test system: DNA target: 5′-dGCT GCA AGC GTC G (SEQ ID NO: 33); test: UV thermal melting, single triazole linkage (MeC-T step), DNA target; type: binding
[4] = test system: RNA target: 5′-rGCU GCA AGC GUC G (SEQ ID NO: 34); test: UV thermal melting, single triazole linkage (MeC-T step), RNA target; type: binding
[5] = test system: RNA Target 3′-rGCUGCGMACGUCG (M = G, C, U); test: Mismatch discrimination against RNA targets containing a mismatch nucleotide (UV melting); type: binding
[6] = test system: DNA target: 5′-dGCT GGA GAG GTC G (SEQ ID NO: 39); type: binding; conditions: for Tm, DNA target: pH 7
[7] = test system: DNA target; 5′-dGCT AGA GAA GTC G (SEQ ID NO: 37); test: UV thermal melting, two triazole linkages (MeC-T steps), DNA target; type: binding; conditions: Table 6; for Tm, DNA target: 10 mM phosphate, 200 mM NaCl, pH 7.0, 3.0 μM each strand; for ΔTm/mod, DNA target: relative to unmodified ON7
[8] = test system: RNA target; 5′-rGCU AGA GAA GUC G (SEQ ID NO: 38); test: UV thermal melting, two triazole linkages (MeC-T steps), RNA target; type: binding; conditions: for Tm, RNA target / ΔTm/mod, RNA target: Table 6; for Tm, RNA target: 10 mM phosphate, 200 mM NaCl, pH 7.0, 3.0 μM each strand; for ΔTm/mod, RNA target: relative to unmodified ON7
[9] = test system: Phosphodiesterase 1 from Crotalus adamanteus venom
[10] = Table 5, 10 mM phosphate, 200 mM NaCl, pH 7.0, 3.0 μM each strand
[11] = Table 3, fully matched duplex (M = A)
[12] = change in Tm relative to the fully matched duplex (M = A)

Substance: 5′-d CGACG^MeCp^MeCTGCAGC [ON33]
- Tm, DNA target [1]: 68.7 °C
- Tm, RNA target [2]: 69.1 °C

Substance: 5′-d CGACG^MeCp^MeC^LTGCAGC [ON34]
- ΔTm, DNA target (relative to the unmodified duplex ON33) [1]: +3.3
- Tm, DNA target [1]: 72 °C
- ΔTm, RNA target (relative to the unmodified duplex ON33) [2]: +5.6
- Tm, RNA target [2]: 74.7 °C

Substance: 5′-dCGACG^MeC^LtTTGCAGC (DNA dCdGdAdCdGl[5mC][tz]dTdTdGdCdAdGdC; further chemistry not given here) [ON5]
- Tm, DNA target [3, 10]: 52.7 °C
- ΔTm, DNA target (change in Tm relative to the unmodified duplex) ([3]; Table 5, relative to ON1): -11.5 °C
- additional stabilising effect of LNA on the 5′-side of the triazole ([4]; DNA:RNA hybrids or DNA duplexes): no significant additional stabilising effect
- Tm, RNA target [4, 10]: 55.5 °C
- ΔTm, RNA target (change in Tm relative to the unmodified duplex) ([4]; Table 5, relative to ON1): -7.2 °C

Substance: 5′-dCGACG^MeC^LtT^LTGCAGC [ON6]
- ΔTm, DNA target (change in Tm relative to the unmodified duplex) [3]: -5.8
- Tm, DNA target ([3]; pH 7): 58.4 °C
- additional stabilising effect of LNA on the 5′-side of the triazole [4]: no significant additional stabilising effect
- ΔTm, RNA target (change in Tm relative to the unmodified duplex) [4]: +0.1
- Tm, RNA target ([4]; pH 7): 62.9 °C

Substance: 5′-dCGACG^MeCtTTGCAGC (DNA dCdGdAdCdGd[5mC][tz]dTdTdGdCdAdGdC; further chemistry not given here) [ON3]
- Tm, DNA target [3, 10]: 55.3 °C
- ΔTm, DNA target (change in Tm relative to the unmodified duplex) ([3]; Table 5, relative to ON1): -8.9 °C
- Tm, RNA target M = A [4, 11]: 56.6 °C
- Tm, RNA target [4, 10]: 56.6 °C
- ΔTm, RNA target (change in Tm relative to the unmodified duplex) ([4]; Table 5, relative to ON1): -6.2 °C
- ΔTm, mismatch M = C [5, 12]: -16.1 °C
- ΔTm, mismatch M = G [5, 12]: -2.2 °C
- ΔTm, mismatch M = U [5, 12]: -12.9 °C

Substance: 5′-dCGACG^MeCtT^LTGCAGC [ON2]
- increase in thermal stability compared to the duplex containing only the triazole linkage [3]: 2.9
- ΔTm, DNA target (change in Tm relative to the unmodified duplex) [3]: −6.0
- Tm, DNA target ([3]; pH 7): 58.2 °C
- Tm, RNA target M = A [4]: 62 °C
- increase in Tm relative to the duplex with only the triazole linkage [4]: 5.4
- ΔTm, RNA target (change in Tm relative to the unmodified duplex) [4]: −0.8
- Tm, RNA target ([4]; pH 7): 62 °C
- ΔTm, mismatch M = C [5]: -15.6
- ΔTm, mismatch M = G [5]: -3.3
- ΔTm, mismatch M = U [5]: -13.4

Substance: 5′-dCGACG^MeCt^MeCTGCAGC [ON12]
- ΔTm, DNA target (relative to the unmodified duplex ON33) [1]: -6.4
- Tm, DNA target [1]: 62 °C
- ΔTm, RNA target (relative to the unmodified duplex ON33) [2]: -5.8
- Tm, RNA target [2]: 63.4 °C

Substance: 5′-dCGACG^MeCt^MeC^LTGCAGC [ON11]
- ΔTm, DNA target (relative to the unmodified duplex ON33) [1]: -5.1
- Tm, DNA target [1]: 63.5 °C
- ΔTm, RNA target (relative to the unmodified duplex ON33) [2]: -0.5
- Tm, RNA target [2]: 68.6 °C

Substance: 5′-dCGA^MeCp^MeCTCT^MeCp^MeCAGC [ON35]
- Tm, DNA target [6]: 66.6 °C

Substance: 5′-dCGA^MeCp^MeC^LTCT^MeCp^MeC^LAGC [ON36]
- ΔTm/mod, DNA target [6]: +2.8
- Tm, DNA target [6]: 72.2 °C

Substance: 5′-dCGA^MeCtTTCT^MeCtTAGC (DNA dCdGdAd[5mC][tz]dTdTdCdTd[5mC][tz]dTdAdGdC; further chemistry not given here) [ON9]
- Tm, DNA target [7]: 42.3 °C
- ΔTm/mod, DNA target [7]: -7.4 °C/modification
- Tm, RNA target [8]: 47.1 °C
- ΔTm/mod, RNA target [8]: -5.8 °C/modification

Substance: 5′-dCGA^MeCtT^LTCT^MeCtT^LAGC (DNA dCdGdAd[5mC][tz]lTdTdCdTd[5mC][tz]lTdAdGdC; further chemistry not given here) [ON8]
- Tm, DNA target [7]: 48.0 °C
- ΔTm/mod, DNA target [7]: -4.5 °C/modification
- increase in Tm per modification relative to two triazole linkages without 3′-LNA ([8]; ON8 compared with ON9, RNA target): 5.0 °C/modification
- drop in Tm per modification compared to unmodified ON7 ([8]; RNA target): 0.8 °C/modification
- Tm, RNA target [8]: 57.1 °C
- ΔTm/mod, RNA target [8]: -0.8 °C/modification

Substance: 5′-dCGA^MeCt^MeCTCT^MeCt^MeCAGC [ON14]
- ΔTm/mod, DNA target [6]: -7.3
- Tm, DNA target [6]: 51.9 °C

Substance: 5′-dCGA^MeCt^MeC^LTCT^MeCt^MeC^LAGC [ON13]
- ΔTm/mod, DNA target [6]: -5.1
- Tm, DNA target [6]: 56.4 °C

Substance: CGACG^MeCTTGCAGC (DNA CGACGCTTGCAGC; DNA, [5mC] at 6, backbone not given here) [ON1]
- Tm, DNA target [3, 10]: 64.2 °C
- Tm, RNA target M = A [4, 11]: 62.8 °C
- Tm, RNA target [4, 10]: 62.8 °C
- ΔTm, mismatch M = C [5, 12]: -16.3 °C
- ΔTm, mismatch M = G [5, 12]: -3.9 °C
- ΔTm, mismatch M = U [5, 12]: -13.7 °C
- time to full digestion by 3′-exonuclease (gel) [9]: ≤ 5 min

Substance: CGACG^MeCT^LTGCAGC [ON4]
- ΔTm, DNA target (change in Tm relative to the unmodified duplex) [3]: 3.3
- Tm, DNA target ([3]; pH 7): 67.5 °C
- Tm, RNA target M = A [4]: 68.9 °C
- ΔTm, RNA target (change in Tm relative to the unmodified duplex) [4]: 6.1
- Tm, RNA target ([4]; pH 7): 68.9 °C
- ΔTm, mismatch M = C [5]: -15.2
- ΔTm, mismatch M = G [5]: -4.8
- ΔTm, mismatch M = U [5]: -13.7

Substance: CGA^MeCTTCT^MeCTAGC (DNA dCdGdAd[5mC]dTdTdCdTd[5mC]dTdAdGdC) [ON7]
- Tm, DNA target [7]: 57.1 °C
- Tm, RNA target [8]: 58.8 °C

Substance: CGA^MeCT^LTCT^MeCT^LAGC (DNA dCdGdAd[5mC]lTdTdCdTd[5mC]lTdAdGdC) [ON10]
- Tm, DNA target [7]: 62.2 °C
- ΔTm/mod, DNA target [7]: +2.5 °C/modification
- Tm, RNA target [8]: 70.0 °C
- ΔTm/mod, RNA target [8]: +5.6 °C/modification
